Assay results taken from paper PMC8067766 (International Journal of Molecular Sciences, 2021).
Where a SMILES comes first, the peptide text is derived from it.

Assays:
dorsal skin wounds [1] = assay: Wound healing in a dorsal skin excision model in mice; assay type: in vivo, BALB/c female mice
Description: Eight-week-old BALB/c female mice were used for experiments. All experimental procedures were approved by the Local Ethics Committee in Bydgoszcz (Approval No. 49/2016). The mice were anesthetized with inhaled 2–5% isoflurane. The skin on the back was shaved and disinfected. The skin was folded and raised cranially and caudally along the spine. The mouse was then placed in a lateral position, and the folded skin was pierced with a 6.0 mm diameter biopsy punch, resulting in the formation of two excisional, symmetrical wounds on the back of the mouse. Before peptides administration, mice were randomly divided into treatment and control groups comprising six individuals. A total of 10 µL of 1 mg/mL peptide solution suspended in saline or fibrils solution suspended in PBS at the same concentration, was applied to each wound. Control groups received saline only. The wounds were covered with transparent Tegaderm film and an adhesive plaster was wrapped around the mouse torso. During the first week of the experiment, the wounds were treated with the peptide daily for five consecutive days along with replacement of the dressing. During the second week of the experiment, the dressing was replaced every other day with no further stimulation. For fibrils the solution was administered once after wounding and the dressing was replaced every two days. At the beginning of the third week, the dressing was removed. To measure the wound area, a ruler was placed next to the injury site, and the wound was photographed. Wound areas were calculated using ImageJ software.

46BR.1N fibroblasts = assay: Collagen synthesis analysis (Direct red 80); assay type: cell-based, human; settings: 25.0 µg/mL; 6 days; Direct red 80, 550 nm, percentage of control
Protocol: 46BR.1N fibroblasts were seeded into 96-well plates, at a density of 3000 cells per well, in DMEM medium supplemented with 10% FBS. After 24 h, when the cells had attached to the plate, the medium was exchanged for a fresh one, and the cells were stimulated with appropriate concentrations of the tested peptides. Half of the medium was exchanged every two days, with additional stimulation during every medium exchange, and the cells were cultured in the presence of the peptides for six days. The medium was then removed and the cells were washed with PBS, fixed for 1 h in Bouin’s fluid (15 mL of saturated picric acid, 5 mL of 37% formaldehyde and 1 mL of acetic acid), washed in running tap water for 15 min and air dried. The cells were stained for 1 h with Direct red 80 (Sigma Aldrich, St. Louis, MO, USA) dissolved in saturated aqueous picric acid solution at a concentration of 1 mg/mL, while gently shaking the plate on a microplate shaker. The dye was removed and the cells were washed with a 0.01 M hydrochloric acid solution to remove unbound dye. The cells were photographed with a light microscope. The dye was then dissolved in 0.1 M sodium hydroxide for 30 min by shaking the plate on a microplate shaker at room temperature. The solution was transferred to a new plate and a spectrophotometric analysis was performed at 550 nm, using 0.1 N sodium hydroxide as a blank. […]

HaCaT keratinocytes = assay: XTT proliferation assay, keratinocytes; assay type: cell-based, human; settings: for increase in proliferation by fibrils compared to control (XTT): fibrillated form, 10 µL of fibrils (50 µg/mL), 48 h, not statistically significant; for stimulation of proliferation (XTT), in words / inhibition of proliferation (XTT), in words: non-fibrillated peptide, 48 and 72 h; for inhibition of proliferation (XTT), in words: up to 25 µg/mL
Protocol: Immortalized human HaCaT [69, 70] keratinocytes (DKFZ, Heidelberg, Germany) and the human dermal fibroblast cell line 46BR.1N (ECACC, Sigma Aldrich, St. Louis, MO, USA) were used in the study. Cells were routinely grown in culture flasks (growth surface area 25 cm^2) in Dulbecco’s modified Eagle medium (DMEM, Sigma Aldrich, St. Louis, MO, USA), with 4500 mg/L of glucose, 584 mg/L of L-glutamine, sodium pyruvate, and sodium bicarbonate, supplemented with 10% FBS and 100 units/mL of penicillin and 100 μg/mL of streptomycin (Sigma Aldrich, St. Louis, MO, USA), under a humidified atmosphere with 5% CO2 at 37 °C. Medium was changed every 2–3 days.
Lactate dehydrogenase (LDH) activity in cell culture supernatants (Takara, Japan, cat. No. MK401) was measured to determine the cytotoxicity of the tested compounds, and the XTT assay was used to evaluate their effect on cell proliferation. Both tests were performed as previously described according to manufacturers’ instructions. Briefly, cells were seeded into 96-well plates, at a density of 5000 cells per well, in DMEM supplemented with 10% FBS. After 24 h the medium was exchanged for serum-free DMEM containing appropriate concentrations of the tested compounds. Supernatants for LDH analysis were collected after 48 h of incubation. The XTT assay was performed after 48 and 72 h of incubation.
For the analysis of the effect of the peptide fibrils on skin cells, the experiment was performed as described, but the cells were stimulated with 10 µL of the fibrils (50 µg/mL) and incubated for 48 h, when the LDH and XTT assay were then performed.

dorsal skin wounds [2] = assay: Histological analysis of healed skin (Masson's trichrome); assay type: in vivo, BALB/c female mice; settings: skin sampled day 18 after injury
Protocol: Mice were euthanized on day 18 after the injury. Skin from their backs was sampled and stored in formalin. Samples were then embedded in paraffin, cut into 5 µm sections and stained with Masson’s trichrome staining (light green for control and FC-GHK samples and aniline blue for the FC peptide and both fibrillated peptides). Stained sections were evaluated using a light microscope.

[3] = Transmission electron microscopy of fibrils; assay type: physicochemical; settings: 1.0 mg/mL in PBS pH 7.4, TEM, uranyl acetate stain
Protocol: All peptides were dissolved in Eppendorf Low Retention Tubes in 1.0 mL of PBS pH 7.4. The concentration of the solutions of peptides was 1.0 mg/mL. The peptides were incubated at 37 °C with constant orbital shaking. Aliquots for the evaluation of the fibrillization process were taken before incubation and after 1, 2, 3, 6, 14, and 21 days or only after 7 days, depending on the experiments.
Peptide samples (5 µL) were applied on a glow-discharged carbon-coated copper grid (400 mesh). After 1 min of adsorption, excess liquid was removed using filter paper, and the samples were stained with 2% (v/v) aqueous uranyl acetate. The samples were examined with a TECNAI SPIRIT BIO TWIN FEI (FEI Company, Hillsboro, OR, USA) at 120 kV, with nominal magnifications between 11,500 and 39,000. The assay was performed for samples before (after dissolution) and after 3 days of incubation.

[4] = non-fibrillated peptide, 1 mg/mL in saline, five daily applications

Row | Structure (SMILES) | wound closure rate compared to control (dorsal skin wounds [1]; fibrillated peptide, 10 µL of 1 mg/mL in PBS per wound, administered once, n = 16 wounds) | wound closure and scars of FC-GHK compared with FC and control (dorsal skin wounds [1]; [4]) | wound epithelialization compared with the control (dorsal skin wounds [1]; [4]) | wound state on day 14 post-injury (dorsal skin wounds [1]; [4]) | wound closure compared to the control group (dorsal skin wounds [1]; non-fibrillated peptide, 10 µL of 1 mg/mL in saline per wound, five daily applications, n = 12 wounds) | increase in collagen synthesis (46BR.1N fibroblasts) [%] | increase in proliferation by fibrils compared to control (XTT) (HaCaT keratinocytes) | stimulation of proliferation (XTT), in words (HaCaT keratinocytes) | inhibition of proliferation (XTT), in words (HaCaT keratinocytes) | muscle cell growth in wound area (histology) (dorsal skin wounds [2]; fibrillated peptide) | muscle cell layer in restored tissue (histology) (dorsal skin wounds [2]; non-fibrillated peptide) | fibril thickness (TEM) [3]
1 | CC[C@H](C)[C@H](NC(=O)CNC(=O)[C@H](C)NC(=O)[C@H](CCC(N)=O)NC(=O)CNC(=O)CNC(=O)CNC(=O)[C@@H](NC(=O)[C@@H]1CCCN1C(=O)[C@H](C)NC(=O)[C@H](C)NC(=O)CNC(=O)CNC(=O)CNC(=O)[C@H](CCCCN)NC(=O)[C@H](Cc1c[nH]cn1)NC(=O)CNC(C)=O)C(C)C)C(=O)N[C@H](C(=O)N[C@H](C(N)=O)C(C)C)C(C)C [FC-GHK] (Ac-GHKGGGAAPVGGGQAGIVV-NH2) | the difference in wound closure rate could be observed on day 4 post-injury without statistical significance | faster wound closure than for the FC peptide and significantly smaller scars compared to the control group | increased epithelialization on the second day | closed entirely | significantly and consistently accelerated from day 2 till day 14 | 30 | about 10% | stimulated proliferation of both tested cell lines at concentrations of 0.01–10 µg/L | slight inhibition of the proliferation of skin cells after 72 h stimulation | No such cell growth was present | modest reconstruction of the muscle cell layer | –
2 | CC[C@H](C)[C@H](NC(=O)CNC(=O)[C@H](C)NC(=O)[C@H](CCC(N)=O)NC(=O)CNC(=O)CNC(=O)CNC(=O)[C@@H](NC(=O)[C@@H]1CCCN1C(=O)[C@H](C)NC(=O)[C@H](C)NC(=O)CNC(=O)CNC(=O)CNC(=O)[C@H](CCCCN)NC(=O)[C@H](Cc1c[nH]cn1)NC(=O)CNC(=O)[C@H](CCCCN)NC(C)=O)C(C)C)C(=O)N[C@H](C(=O)N[C@H](C(N)=O)C(C)C)C(C)C [FC-KGHK] (Ac-KGHKGGGAAPVGGGQAGIVV-NH2) | – | – | – | – | – | 40 | about 10% | most potent stimulation was observed at concentrations of 1.0 µg/mL after 48 h and 0.1 µg/mL after 72 h incubation | did not inhibit the proliferation of skin cells | – | – | 10–12 nm
